No end group written: not given here. *: point of attachment. Cholyl = C[C@H](CCC(=O)*)[C@H]1CC[C@H]2[C@@H]3[C@H](O)C[C@@H]4C[C@H](O)CC[C@]4(C)[C@H]3C[C@H](O)[C@]12C
Assays:
[1] = test system: B3Z cells; experiment: Antigen-presentation assay using the B3Z reporter system, BMDCs as antigen presenting cells; type: cell-based, mouse; settings: for antigen-presentation activity of cholic acid-NLS peptide conjugate (B3Z response OD570): BMDCs as antigen presenting cells, mixed with OVA at best conjugate:antigen ratio, FIGS. 3-5; for antigen cross-presentation (B3Z response) compared with OVA alone: BMDCs, molar ratio (bile acid/peptide/conjugate):antigen 4:1, mixed with OVA, FIG. 2
Description: For this experiment, BMDCs were used as the antigen presenting cells (n=6) and the molar ratio (bile acid/peptide/conjugate): antigen was 4:1. Controls tested included no antigen (“PBS”), antigen alone (“OVA alone”), unconjugated NLS peptide (“SV40NLS”), unconjugated cholic acid mixed with OVA (“CA”), and the positive control peptide SIINFEKL (SEQ ID NO: 9) mixed with OVA (“SIINFEKL”). The dashed line represents the signal obtained with OVA alone. Bile acids: cholic acid (CA); glycodeoxycholic acid (GDCA); glycochenodeoxycholic acid (GCDCA); ursodeoxycholic acid (UDCA); and lithocholic acid (LCA).
The dashed line represents the signal obtained with OVA alone. The readout was taken after 24 h of incubation and error bars represent SD (n=6). For this experiment, BMDCs were used as the antigen presenting cells.
The dashed line represents the signal obtained with OVA alone. Readout was taken after 24 h of incubation from a single experiment. The molar ratio of CA-peptide conjugate: OVA was 22:1. For this experiment, BMDCs were used as the antigen presenting cells.
For this experiment, BMDCs were used as the antigen presenting cells. The dashed line represents the signal obtained with OVA alone. Readout was taken after 24 h of incubation from a single experiment. The molar ratio of CA-peptide conjugate: OVA was as follows: CA-GWG-SV40NLS (12:1); CA-hnRNP M NLS (12:1); CA-NLS2-RPS17 NLS (22:1); CA-HuR NLS (22:1); CA-cMyc NLS (2:1); CA-NLS3-RPS17 NLS (22:1); CA-NLS2-RG-RPS17 NLS (2:1); CA-PQBP1 NLS (8:1); CA-hnRNPA1 M9 NLS (22:1); and CA-SV40 NLS (2:1).
(§1) Various bile acid-NLS conjugates were screened using the B3Z reporter system. The B3Z cell line is a T-cell hybridoma specific for the H2-K^b-SIINFEKL complex. Once activated via its TCR, the LacZ reporter gene (under the NFAT promoter control) is expressed. Briefly, 1.5×10^5 BMDCs or 2.5×10^5 MSCs were co-cultured with 5×10^4 B3Z cells treated with the mixing conditions of ovalbumin (OVA) and bile acid-NLS conjugates for overnight at 37° C. with 5% CO2. The following day, all cells were washed twice with PBS (pH 7.4), and the cell pellets were lysed by adding 100 μL of a lysis buffer containing 0.15 mM chlorophenol red-beta-D-galactopyranoside (CPRG) substrate (Calbiochem, La Jolla, Calif.), 0.125% NP40 (EMD Sciences, La Jolla, Calif.), 9 mM MgCl2 (Aldrich, USA) and 100 mM 2-mercaptoethanol in PBS. After a 5- or 24-h incubation at 37° C., absorbance was taken at 570 nm with 636 nm as the reference wavelength. For these experiments, OVA was re-suspended in PBS (pH 7.3) at 5-10 mg/mL. The different bile acid-NLS conjugates were re-suspended in H2O at 10 mg/mL. Bile acid-NLS conjugate: antigen mixtures were prepared at different molar ratios according to Table 2.
Variants of CA-SV40NLS were synthesized in order to explore structure-activity relationships relating to the antigen cross-presentation enhancing activity observed for this conjugate. More particularly, conjugates having different bile acids conjugated to the SV40NLS peptide (SEQ ID NO: 1) were synthesized and their effect on antigen presentation was evaluated by using the B3Z reporter system with the OVA antigen as described in Example 1. […] In FIG. 2, no increase in antigen cross-presentation over the antigen alone (“OVA”) was observed when OVA was mixed with either unconjugated cholic acid (“CA”) or SV40NLS peptide (“SV40NLS”), although lower sensitivity of the B3Z reporter system as compared to the OT-I CD8 T cell-based assay used in FIG. 1 may have been a factor.
(§2) Further variants of CA-SV40NLS were synthesized in which the SV40NLS peptide was replaced with peptides comprising other NLS's (Table 3) and the antigen presentation activities of the CA-NLS peptide conjugates were evaluated using the B3Z reporter system as described in Example 1. The following conjugate:antigen molar ratios were tested for each conjugate: 2:1, 4:1, 8:1, 12:1 and 22:1. […]

[2] = test system: cross-presenting mesenchymal stromal cell (MSC) line; experiment: Antigen processing: MSC line pulsed with DQ Ovalbumin (OVA-DQ), flow cytometry; type: cell-based; settings: various conjugate:OVA molar ratios, FIGS. 8A-8D
Method: FIGS. 8A to 8D show the effect of different NLS peptides on the antigen processing activity of cholic acid-NLS peptide conjugates. For this experiment, a cross-presenting mesenchymal stromal cell (MSC) line was used as the antigen presenting cells, which were pulsed with DQ™ Ovalbumin (i.e., OVA^DQ). OVA^DQ fluorescence was measured by flow cytometry. Different ratios of CA (NLS1 RSP17 [FIG. 8A]; NLS3 RPS17 [FIG. 8B]; PQBP-1 [FIG. 8C]; and hnRNPA1 M9 NLS [FIG. 8D]) to antigen (CA:OVA=22:1, 12:1, 8:1, 4:1, and 2:1) were tested (hnRNPA1 M9 NLS at 2:1).
(§3) To further dissect the effect of bile acid peptide conjugates on antigen presentation, antigen internalization and processing were evaluated. MSC cell lines were pulsed with OVA-labelled with AF647 in the presence of various molar ratios of different bile acid peptide conjugates, NLS1-RPS17 [FIG. 7A]; NLS3 RPS17 [FIG. 7B]; PQBP-1 [FIG. 7C]; and hnRNPA1 M9 NLS [FIG. 7D]) and fluorescence was assessed by flow cytometry. […] OVA processing was assessed by pulsing MSC cell lines with DQ™-Ovalbumin (OVA-DQ) in the presence of the same bile acid peptide conjugates as in FIGS. 7A to 7D.

[3] = test system: cross-presenting mesenchymal stromal cell (MSC) line; experiment: Antigen internalization: MSC line pulsed with OVA labelled with Alexa Fluor 647, flow cytometry; type: cell-based; settings: various conjugate:OVA molar ratios, FIGS. 7A-7D
Method: FIGS. 7A to 7D show the effect of different NLS peptides on the antigen internalization activity of cholic acid-NLS peptide conjugates. For this experiment, a cross-presenting mesenchymal stromal cell (MSC) line was used as the antigen presenting cells, which were pulsed with OVA labelled with Alexa Fluor 647 (i.e., OVA^647)™. OVA^647 fluorescence was measured by flow cytometry. Different ratios of CA (NLS1 RPS17 [FIG. 7A]; NLS3 RPS17 [FIG. 7B]; PQBP-1 [FIG. 7C]; and hnRNPA1 M9 NLS [FIG. 7D]) to antigen (CA:OVA=22:1, 12:1, 8:1, 4:1, and 2:1) were tested (hnRNPA1 M9 NLS at 2:1).
as §3

[4] = test system: B3Z cells; experiment: Antigen-presentation assay using the B3Z reporter system, cross-presenting MSC line as antigen presenting cells; type: cell-based; settings: compared to OVA alone or OVA mixed with CA-SV40NLS, FIG. 6
Method: For this experiment, a cross-presentation mesenchymal stromal cell (MSC) line was used as the antigen presenting cells. The dashed line represents the signal obtained with OVA alone. Readout was taken after 24 h of incubation. The molar ratio of CA-peptide conjugate: OVA was as follows: CA-GWG-SV40NLS (2:1); CA-hnRNP M NLS (8:1); CA-hnRNP D NLS (12:1); CA-NLS2-RG-RPS17 (4:1); CA-cMyc NLS (12:1); CA-HuR NLS (12:1); CA-Tus NLS (2:1); CA-NLS2-RPS17 NLS (4:1); CA-PQBP1 NLS (12:1); CA-hnRNPA1 M9 NLS (2:1); and CA-SV40 NLS (2:1).
as §1, §2

[5] = test system: GII.3 human norovirus; settings: host intestinal cells; free bile acids; cited from earlier work

| Compound | antigen-presentation activity of cholic acid-NLS peptide conjugate (B3Z response OD570) [1] | OVA processing (OVA-DQ fluorescence) [2] | OVA internalization (OVA-AF647 fluorescence) [3] | further results |
| --- | --- | --- | --- | --- |
| CA-PQBP1 NLS: cholic acid conjugated to peptide CADREEGKERRHHRREELAPY (SEQ ID NO: 6) (also: cholic acid conjugate, site not given here) | strikingly high antigen-presentation activity | enhance OVA processing | enhance OVA internalization | antigen-presentation activity of cholic acid-NLS peptide conjugate (B3Z response OD570) [4]: strikingly high antigen-presentation activity |
| CA-hnRNPA1 M9 NLS: cholic acid conjugated to peptide CSNFGPMKGGNFGGRSSGPY (SEQ ID NO: 4) (also: cholic acid conjugate, site not given here) |  | enhance OVA processing | enhance OVA internalization |  |
| C[C@H](CCC(=O)NCCS(=O)(=O)O)[C@H]1CC[C@H]2[C@@H]3[C@H](O)C[C@@H]4C[C@H](O)CC[C@]4(C)[C@H]3C[C@H](O)[C@]12C [TCA, taurocholic acid] |  |  |  | effect on GII.3 human norovirus infection and replication [5]: increase GII.3 human norovirus infection and replication |
| CA-NLS2-RG-RPS17 NLS: cholic acid conjugated to NLS2-RG Domain RPS17 peptide (SEQ ID NO: 11) (CNKRVCEEIAIIPSKKLRNKGSGRIQRGPVRGIS; cysteine pairing not given here; also: cholic acid conjugate, site not given here) | high antigen presentation activity |  |  |  |
| CA-cMyc NLS: cholic acid conjugated to peptide CGYGPAAKRVKLDGG (SEQ ID NO: 12) (also: cholic acid conjugate, site not given here) | high antigen presentation activity |  |  |  |
| NLS1-RPS17: cholic acid conjugated to peptide CMGRVRTKTVKKAAGG (SEQ ID NO: 15) (also: cholic acid conjugate, site not given here) |  | enhance OVA processing | enhance OVA internalization |  |
| SV40NLS: unconjugated NLS peptide CGYGPKKKRKVGG (SEQ ID NO: 1) (SV40NLS) [reference compound] |  |  |  | antigen cross-presentation (B3Z response) compared with OVA alone [1]: no increase |
| CA-SV40NLS: cholic acid conjugated to the N-terminal cysteine amino group of 13-mer peptide CGYGPKKKRKVGG (SEQ ID NO: 1) (Cholyl-CGYGPKKKRKVGG) |  |  |  | antigen cross-presentation (B3Z response) compared with OVA alone [1]: increased antigen cross-presentation |
| C[C@H](CCC(=O)NCC(=O)O)[C@H]1CC[C@H]2[C@@H]3[C@@H](O)C[C@@H]4C[C@H](O)CC[C@]4(C)[C@H]3CC[C@]12C [GUDCA, glycoursodeoxycholic acid] |  |  |  | immunogen enhancer activity (B3Z reporter system) ([1]; GUDCA:OVA molar ratios 2:1, 4:1, 8:1, 12:1 and 22:1): observed at all GUDCA:OVA molar ratios tested; increase in B3Z response (OD570) over the OVA alone ([1]; unconjugated GUDCA mixed with OVA, 22:1, data not shown): ≤ 30% |
| CA-NLS3-RPS17 NLS: cholic acid conjugated to peptide SKKLRNKIAGYVTHLMKRI (SEQ ID NO: 8) (also: cholic acid conjugate, site not given here) | high antigen presentation activity | enhance OVA processing | enhance OVA internalization |  |
| CA-HuR NLS: cholic acid conjugated to peptide CGRFSPMGVDHMSGLSGVNVPG (SEQ ID NO: 13) (also: cholic acid conjugate, site not given here) | high antigen presentation activity |  |  | antigen-presentation activity of cholic acid-NLS peptide conjugate (B3Z response OD570) [4]: strikingly high antigen-presentation activity |
| CA-GWG-SV40NLS: cholic acid conjugated to peptide CGWWGYGPKKKRKVGGWWG (SEQ ID NO: 3) (also: cholic acid conjugate, site not given here) | higher antigen-presentation activity than SV40NLS |  |  | antigen-presentation activity of cholic acid-NLS peptide conjugate (B3Z response OD570) [4]: strikingly high antigen-presentation activity |
| C[C@H](CCC(=O)NCC(=O)O)[C@H]1CC[C@H]2[C@@H]3[C@H](O)C[C@@H]4C[C@H](O)CC[C@]4(C)[C@H]3C[C@H](O)[C@]12C [GCA, glycocholic acid] |  |  |  | effect on GII.3 human norovirus infection and replication [5]: increase GII.3 human norovirus infection and replication |
